In test [1] the test system is CYP11B2 (aldosterone synthase) expression, H295R cells expressing KCNJ5^WT. The test is described as follows: Real-time PCR of CYP11B2 in H295R cells transfected with KCNJ5^WT. It is filed as cell-based, human. Particulars: 5, 20 or 50 μM for 18 h. How it is done:
H295R cells were cultured in DMEM/F12, HEPES (Gibco) supplemented with 2.5% Ultroser G (Pall Biosepra), 1% ITS+ Premix (Corning) and 1% Penicillin/Streptomycin (Gibco). Plasmids were purified using the Endofree Maxi Kit (Qiagen). […] 3×10^6 cells were transfected with 3 μg pIRES eGFP containing no insert, WT or mutant KCNJ5 using an Amaxa Nucleofector I (program P-20) and the Nucleofector Kit R (Lonza). Cells were allowed to recover briefly in RPMI 1640 medium (Gibco). […] After an additional 18 h, RNA was harvested using the RNeasy Mini Kit (Qiagen) following the manufacturer's instructions. 300 ng RNA were transcribed using the Quantitect Reverse Transcription Kit (Qiagen). Expression levels of CYP11B2 and GAPDH were quantified in triplicates in a 7300 Real-Time PCR System (Applied Biosystems) using the Taqman Gene Expression Master Mix and assays Hs01597732_m1 (CYP11B2) or HS02758991_g1 (GAPDH) (all Applied Biosystems). DDCT values were calculated by normalization of DCT values, using the average DCT of vehicle treated empty vector-transfected cells as a reference.
This cell line is derived from a human adrenocortical carcinoma and represents a commonly used in vitro model of zona glomerulosa aldosterone production (Wang et al. 2012, Horm. Metab. Res. 44:245-250). […]

The target in test [2] is T1, KCNJ5^G151R (Homo sapiens, UniProt P48544, G151R).
T1 construct: expressed in transfected cells
T1 sequence (P48544 1-419 G151R): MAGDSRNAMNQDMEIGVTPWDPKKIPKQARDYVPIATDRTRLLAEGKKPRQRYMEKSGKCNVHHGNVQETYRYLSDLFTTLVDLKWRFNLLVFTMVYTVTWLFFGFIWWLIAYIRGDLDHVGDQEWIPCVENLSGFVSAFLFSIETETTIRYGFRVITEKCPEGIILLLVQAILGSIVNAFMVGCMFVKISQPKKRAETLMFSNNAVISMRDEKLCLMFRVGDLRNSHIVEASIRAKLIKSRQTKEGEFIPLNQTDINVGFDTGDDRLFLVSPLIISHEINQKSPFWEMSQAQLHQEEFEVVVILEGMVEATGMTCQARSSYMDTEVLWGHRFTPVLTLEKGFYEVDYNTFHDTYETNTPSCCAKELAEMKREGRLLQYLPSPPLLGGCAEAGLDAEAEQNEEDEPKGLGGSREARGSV
Nature of the test: cell-based. Format: cell-based. In a few lines: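 Viability is read as cellular ATP by CellTiter-Glo luminescence 72 h later at 37 °C. Uninduced and induced untreated cells set 100% and 0% effect; curves use a 4-parameter logistic fit.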

Test [3] concerns the target T2, KCNJ5^L168R (Homo sapiens, UniProt P48544, L168R).
T2 construct: expressed in transfected cells
T2 sequence (P48544 1-419 L168R): T1 sequence (P48544 1-419 G151R) with R151G, L168R
Nature of the test: Cell viability assay (ATP, CellTiter-Glo): rescue of KCNJ5^L168R-induced lethality in inducible HEK293 cells. It is filed as cell-based.

[4] abbreviates: 10-point dilution 20 to 0.0391 μM, N=3, four-parameter fit.
Setting [5] is: tested as in FIG. 7 (FIGS. 9 and 10).

Numbering of substitutions follows the chain as printed. Like-named read-outs stand apart in the source and are kept apart here.

With `CC[C@H]1OC(=O)[C@H](C)[C@@H](O[C@H]2C[C@@](C)(OC)[C@@H](O)[C@H](C)O2)[C@H](C)[C@@H](O[C@@H]2O[C@H](C)C[C@H](N(C)C)[C@H]2O)[C@](C)(O)C[C@@H](C)/C(=N\OCOCCOC)[C@H](C)[C@@H](O)[C@]1(C)O` [Roxithromycin, roxithromycin], the “expression of CYP11B2” value in test [1] was “virtually no change”. The G151R maximum inhibition in test [2] (setting [4]) is 105.92%. The G151R minimum inhibition in test [2] (setting [4]) is on record as 9.92%. Besides, the viability at 10 µM in test [2] (HEK293, 72 h, mean of primary screen and hit pick, read-out: mean % effect) was determined as 107%; in test [2] (HEK293, ATP level 72 h after induction, uninduced = 100%, induced = 0% effect, first of the two runs (primary screen / hit pick), read-out: % effect (1)) it was 108%; in test [2] (HEK293, ATP level 72 h after induction, uninduced = 100%, induced = 0% effect, second of the two runs (primary screen / hit pick, confirmatory testing), read-out: % effect (2)), 107%. Also, in test [2] (dose-response at 1.1, 3.3 and 10 μM), the “rescue of ATP level” value is recorded as “virtually complete rescue of ATP level”. Moreover, in test [2] (macrolide series, dilution curves), the “inhibition of KCNJ5^MUT (structure-activity statement)” value is “potent effects”. The molecule further yielded an L168R maximum inhibition in test [3] (setting [4]) of 81.39%. Also, the “dose response on KCNJ5^L168R” value in test [3] (tested at 1.1, 3.3 and 10 μM) is listed as “showed a dose response”.
As for “N-demethyl-N-isobutyl-8,9-anhydroerythromycin A 6,9-hemiacetal [PLUX37]”, the “inhibition of KCNJ5^G151R by synthesized macrolide derivatives” value in test [2] (setting [5]) was “significant inhibition”. Moreover, in test [3] (setting [5]), the “inhibition of KCNJ5^L168R by synthesized macrolide derivatives” value was “significant inhibition”.

The values are drawn from patent US11484543B2, “Compositions and methods for diagnosing and treating diseases and disorders associated with mutant KCNJ5” (The Rockefeller University, priority 2017, dated 2022).
